Data as given in publication PMC9468151, “Identification of a binding site on soluble RANKL that can be targeted to inhibit soluble RANK-RANKL interactions and treat osteoporosis” (Nature Communications, 2022).
Values joined by “and” are separate entries in the source; they are usually repeats but may differ in a detail not shown here. Identical values can stand only once.

How the values were obtained:
[1] = tested on: sRANKL induced osteoclast differentiation; assay: In vitro anti-osteoclastogenesis activity determination (TRAP staining); type: cell-based, mouse; set-up: key to inhibition of osteoclastogenesis, dose-response (fig. S2a): % inhibition = 100 − (treated−unstimulated)/(untreated−unstimulated)×100; conditions: for IC50: read-out: OC IC50 (anti-osteoclastogenesis activity); for inhibition of osteoclastogenesis, dose-response (fig. S2a): three replicate columns
Description: Mouse osteoclasts were cultured according to the previously reported protocols. BMMs were plated in 96-well plates at a density of 6 × 10^3 cells/well with complete medium containing 10 ng/mL M-CSF. The following day, cells were then stimulated with 100 ng/mL sRANKL in the presence or absence of compounds with different concentrations every 2 days until osteoclasts formed. In order to calculate IC50, we set 9 concentrations for each compound and untreated and non-sRANKL unstimulating group as controls, each with triplicated repeated wells. After 5 days, cells were fixed with 4% paraformaldehyde and then applied TRAP-staining to identify osteoclasts by using the TRAP-staining kit. Osteoclasts number (OC No.) in each well was counted and the percentage of inhibition ratio was calculated as follows:1 OCinhibitoryratio%=100−OCNo.treated−OCNo.unstimulating/OCNo.untreated−OCNo.unstimulating×100%
The dosages and their correspondent osteoclastogenesis inhibitory activity curve and IC50 value were conducted by using Nonlinear regression (curve fit) analytic procedure in GraphPad Prism 8. Photographs of individual wells were taken using Leica microscope.

[2] = tested on: RAW264.7 cells; assay: In vitro cytotoxicity assay (MTT); type: cell-based, mouse; conditions: RAW264.7, MTT
Description: MTT assay was used to determine cell viability. RAW264.7 cells in the logarithmic growth phase were cultured in 96-well plates with 6 × 10^3 cells in each well and incubated for 24 h. The surviving cells were then determined by MTT method. […] Cell growth inhibition ratio was calculated as follows: Cellgrowthinhibitionratio%=ODvehicle−ODtreaed/ODvehicle×100%
Cell cytotoxicity CC50 value were conducted by using Nonlinear regression (curve fit) analytic procedure in GraphPad Prism 8.

[3] = BMMs, M-CSF + 100 ng/mL sRANKL, 5 days, TRAP staining

| Structure (SMILES) | IC50 [1, 3] | inhibition of osteoclastogenesis, dose-response (fig. S2a) ([1]; conc. 0.0023464 μM) | inhibition of osteoclastogenesis, dose-response (fig. S2a) ([1]; conc. 0.00774313 μM) | inhibition of osteoclastogenesis, dose-response (fig. S2a) ([1]; conc. 0.0255523 μM) | inhibition of osteoclastogenesis, dose-response (fig. S2a) ([1]; conc. 0.0843226 μM) | inhibition of osteoclastogenesis, dose-response (fig. S2a) ([1]; conc. 0.278265 μM) | inhibition of osteoclastogenesis, dose-response (fig. S2a) ([1]; conc. 0.918274 μM) | inhibition of osteoclastogenesis, dose-response (fig. S2a) ([1]; conc. 3.0303 μM) | inhibition of osteoclastogenesis, dose-response (fig. S2a) ([1]; conc. 10 μM) | inhibition of osteoclastogenesis, dose-response (fig. S2a) ([1]; conc. 33 μM) | CC50 [2] | OC IC50 (anti-osteoclastogenesis activity) [1, 3] |
| --- | --- | --- | --- | --- | --- | --- | --- | --- | --- | --- | --- | --- |
| CC(C)OC(=O)C(=NNc1ccccc1C(=O)O)C(=O)Nc1ccccn1 [S3-15-4] | 0.62 µM | 19.4737 and 18.6842 and 17.1053 | 16.7105 and 16.3158 and 13.9474 | 17.8947 and 11.579 and 18.2895 | 16.7105 and 20.2632 and 17.8947 | 34.8684 and 32.5 and 38.8158 | 53.8158 and 43.9474 and 58.5526 | 73.9474 and 71.9737 and 70.3947 | 88.5526 and 83.421 and 86.579 | 100 | 57.2 µM |  |
| CC(=O)C(=NNc1ccccc1C(=O)O)C(=O)Nc1nc2ccccc2s1 [S3-16] | 0.73 µM |  | 3.543 and 4.724 and 0.7874 | 9.449 and 8.661 (2×) | 16.9291 and 24.4094 and 12.9921 | 30.315 and 29.5276 and 31.1024 | 51.1811 and 52.7559 and 54.7244 | 73.2284 and 71.6535 and 75.1968 | 82.6772 and 95.2756 and 99.2126 | 100 | 69.2 µM |  |
| CC(=O)C(=NNc1ccccc1C(=O)O)C(=O)N1CCc2ccccc2C1 [S3-17] | 6.74 µM | 4.167 and -4.167 and 1.19 | 7.7381 and 11.9048 and 8.036 | 13.9881 and 14.2857 and 19.3452 | 22.9167 and 21.7262 and 26.4881 | 30.3571 and 29.4643 and 30.6548 | 35.1191 and 33.0357 and 33.6309 | 38.6905 and 40.1786 and 34.5238 | 50.8929 and 50 and 48.8095 | 63.3929 and 63.6905 and 75.5952 | 82.1 µM |  |
| CC(=O)C(=NNc1ccccc1C(=O)O)C(=O)N1CCOCC1 [S3-18] |  |  |  |  |  |  |  |  |  |  | 52.6 µM | Inactive |
| CCOC(=O)c1sc(NC(=O)C(=NNc2c(C(=O)O)cccc2C(=O)O)C(C)=O)nc1C [S3-19] | 9.49 µM | 10.2719 and 4.834 (2×) | 5.287 and 4.834 and 5.74 | 0.7553 and 1.208 and 3.021 | 5.74 and 4.381 and -1.0574 | 18.8822 and 16.6163 and 15.2568 | 19.7885 and 17.0695 and 17.5227 | 26.1329 and 38.3686 and 35.1964 | 44.713 (2×) and 40.6344 | 74.1692 and 70.997 and 80.0604 | 77.9 µM |  |
| CC(=O)C(=NNc1ccccc1C(=O)O)C(=O)Nc1nc(C)c(C(=O)N2CCOCC2)s1 [S3-20] | 8.71 µM | -0.2448 and 3.06 and 1.591 | 8.935 and 4.896 and 2.326 | 5.263 and 4.529 and 0.8568 | 5.63 and 2.326 and 1.591 | 4.529 and 3.06 and 3.794 | 5.63 and 5.263 (2×) | 5.263 and 7.466 and 5.998 | 58.8739 and 58.1395 and 58.5067 | 97.4296 and 97.0624 and 96.328 | > 100 µM |  |
| CCOC(=O)c1sc(NC(=O)C(=NNc2ccc(OC)cc2C(=O)O)C(C)=O)nc1C [S3-21] | 0.95 µM | 1.224 and -3.182 and 3.06 | 7.099 and 0.1224 and 2.326 | 7.099 and 3.427 and 5.998 | 11.5055 and 14.0759 and 15.9119 | 35.7405 and 36.4749 and 35.0061 | 54.8348 and 53.7332 and 55.5692 | 59.2411 and 62.1787 and 63.2803 | 74.6634 and 76.8666 and 77.9682 | 100 | > 100 µM |  |
| CCOC(=O)c1sc(NC(=O)C(=NNc2ccccc2C(=O)O)C(=O)OC(C)C)nc1C [S3-22] | 0.4 µM | 1.224 and 0.8568 and 0.4896 | 0.8568 and 1.958 and 3.427 | 4.896 and 10.0367 and 5.263 | 26.1934 and 25.0918 and 21.4198 | 44.1861 and 41.6157 and 42.7173 | 58.8739 and 65.1163 and 60.7099 | 88.2497 and 86.7809 and 89.3513 | 100 | 100 | 81.2 µM |  |
